From patent US20190086432A1, “SYSTEMS AND METHODS RELATED TO HUMAN NON-INVASIVE DRUG TESTING” (priority 2017, published 2019)

Assays:
physchem = details: pH 9.5, aqueous buffer
[1] = sustained abstinence in chronic frequent smokers; cited from earlier work
[2] = people driving; similar to 0.08 breath alcohol; cited from earlier work

Row | SMILES | solubility (physchem) [µg/mL] | time residual THC can be detected in blood [1] | blood concentration showing increased weaving within the lane [2] [µg/L]
1 | COc1cc(NS(C)(=O)=O)ccc1N [OX0245] | ≥ 1000 |  | 
2 | CCCCCc1cc(O)c2c(c1)OC(C)(C)[C@@H]1CCC(C)=C[C@@H]21 [THC, Δ-9-tetrahydrocannabinol] |  | up to a month | 13.1
